Experimental data taken from patent US10941157B2, “Pesticidal compositions and uses thereof” (Gilead Apollo, LLC, priority 2015, dated 2021).
Values after ≈ are worked out from the molar mass of the structure shown. Read-outs that look alike come from different tables or passages of the source.

Legend:
Format in all cases: cell-based
[1] = system: Fusarium moniliforme (Fm); test: In vitro pathogen growth inhibition assay, Fm; details: Fusarium verticillioides
How it was run: (§1)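 Spores in 17% V8 liquid medium, or 1.5 mm Rs mycelial plugs in ¼ PDB, incubated with compound; final concentration checked by OD600 for precipitation. OD readings at 24 and 48 h, blank-subtracted, plus visual ratings; value is concentration giving ≥90% growth inhibition.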

Septoria tritici (St) = test: In vitro pathogen growth inhibition assay, St; details: Zymoseptoria tritici, 48 h
How it was run: as §1

[2] = system: Collectotrichum graminicola (Cg); test: In vitro pathogen growth inhibition assay, Cg; details: 48 h
How it was run: as §1

Diplodia maydis (Dm) = test: In vitro pathogen growth inhibition assay, Dm; details: Stenocarpella maydis, 48 h
How it was run: as §1

Botrtyis cinerea (Bc) = test: In vitro pathogen growth inhibition assay, Bc; details: 48 h
How it was run: as §1

[3] = system: Fusarium virguliforme (Fv); test: In vitro pathogen growth inhibition assay, Fv
How it was run: as §1

Rhizoctonia solani (Rs) = test: In vitro pathogen growth inhibition assay, Rs (mycelial plugs); details: Rhizoctonia solani, 48 h
How it was run: as §1

[4] = system: Phytophthora capsici (Pc); test: In vitro pathogen growth inhibition assay, Pc; details: 48 h
How it was run: as §1

[5] = ≥90% inhibition, 48 hours vs 2% DMSO control, read-out: Compound Concentration (ppm) sufficient for ≥90% inhibition of growth, Fm
[6] = ≥90% inhibition, 48 hours vs 2% DMSO control, read-out: Compound Concentration (ppm) sufficient for ≥90% inhibition of growth, St
[7] = ≥90% inhibition, 48 hours vs 2% DMSO control, read-out: Compound Concentration (ppm) sufficient for ≥90% inhibition of growth, Cg
[8] = ≥90% inhibition, 48 hours vs 2% DMSO control, read-out: Compound Concentration (ppm) sufficient for ≥90% inhibition of growth, Dm
[9] = ≥90% inhibition, 48 hours vs 2% DMSO control, read-out: Compound Concentration (ppm) sufficient for ≥90% inhibition of growth, Bc
[10] = ≥90% inhibition, 48 hours vs 2% DMSO control, read-out: Compound Concentration (ppm) sufficient for ≥90% inhibition of growth, Fv
[11] = ≥90% inhibition, mycelial plugs, 48 hours vs 2% DMSO control, read-out: Compound Concentration (ppm) sufficient for ≥90% inhibition of growth, Rs
[12] = ≥90% inhibition, 48 hours vs 2% DMSO control, read-out: Compound Concentration (ppm) sufficient for ≥90% inhibition of growth, Pc
[13] = ≥90% growth inhibition, 48 hours, vs 2% DMSO control, read-out: Compound Concentration (ppm) sufficient for ≥90% inhibition of Fm
[14] = ≥90% growth inhibition, 48 hours, vs 2% DMSO control, read-out: Compound Concentration (ppm) sufficient for ≥90% inhibition of St
[15] = ≥90% growth inhibition, 48 hours, vs 2% DMSO control, read-out: Compound Concentration (ppm) sufficient for ≥90% inhibition of Cg
[16] = ≥90% growth inhibition, 48 hours, vs 2% DMSO control, read-out: Compound Concentration (ppm) sufficient for ≥90% inhibition of Dm
[17] = ≥90% growth inhibition, 48 hours, vs 2% DMSO control, read-out: Compound Concentration (ppm) sufficient for ≥90% inhibition of Bc
[18] = ≥90% growth inhibition, 48 hours, vs 2% DMSO control, read-out: Compound Concentration (ppm) sufficient for ≥90% inhibition of Fv
[19] = ≥90% growth inhibition, mycelial plugs, 48 hours, vs 2% DMSO control, read-out: Compound Concentration (ppm) sufficient for ≥90% inhibition of Rs
[20] = ≥90% growth inhibition, 48 hours, vs 2% DMSO control, read-out: Compound Concentration (ppm) sufficient for ≥90% inhibition of Pc
[21] = concentration sufficient to ≥90% inhibition of growth, 48 hours vs 2% DMSO control, read-out: Compound Concentration (ppm) for ≥90% inhibition, Fm
[22] = concentration sufficient to ≥90% inhibition of growth, 48 hours vs 2% DMSO control, read-out: Compound Concentration (ppm) for ≥90% inhibition, St
[23] = concentration sufficient to ≥90% inhibition of growth, 48 hours vs 2% DMSO control, read-out: Compound Concentration (ppm) for ≥90% inhibition, Cg
[24] = concentration sufficient to ≥90% inhibition of growth, 48 hours vs 2% DMSO control, read-out: Compound Concentration (ppm) for ≥90% inhibition, Dm
[25] = concentration sufficient to ≥90% inhibition of growth, 48 hours vs 2% DMSO control, read-out: Compound Concentration (ppm) for ≥90% inhibition, Bc
[26] = concentration sufficient to ≥90% inhibition of growth, 48 hours vs 2% DMSO control, read-out: Compound Concentration (ppm) for ≥90% inhibition, Fv
[27] = concentration sufficient to ≥90% inhibition of growth, 48 hours vs 2% DMSO control, read-out: Compound Concentration (ppm) for ≥90% inhibition, Rs
[28] = concentration sufficient to ≥90% inhibition of growth, 48 hours vs 2% DMSO control, read-out: Compound Concentration (ppm) for ≥90% inhibition, Pc

IC90 [1, 5] [µg/mL]	IC90 (Septoria tritici (St); [6]) [µg/mL]	IC90 [2, 7] [µg/mL]	IC90 (Diplodia maydis (Dm); [8]) [µg/mL]	IC90 (Botrtyis cinerea (Bc); [9]) [µg/mL]	IC90 [3, 10] [µg/mL]	IC90 (Rhizoctonia solani (Rs); [11]) [µg/mL]	IC90 [4, 12] [µg/mL]	IC90 [1, 13] [µg/mL]	IC90 (Septoria tritici (St); [14]) [µg/mL]	IC90 [2, 15] [µg/mL]	IC90 (Diplodia maydis (Dm); [16]) [µg/mL]	IC90 (Botrtyis cinerea (Bc); [17]) [µg/mL]	IC90 [3, 18] [µg/mL]	IC90 (Rhizoctonia solani (Rs); [19]) [µg/mL]	IC90 [4, 20] [µg/mL]	Structure (SMILES)	further results
0.08 (≈ 0.136 µM)	> 10	0.4 (≈ 0.682 µM)	0.4 (≈ 0.682 µM)	0.4 (≈ 0.682 µM)	0.4 (≈ 0.682 µM)	0.08 (≈ 0.136 µM)	> 50									COc1ccc(F)cc1[C@H](Cn1c(=O)n(C(C)(C)C(=O)NC(C)C)c(=O)c2c(C)c(-c3ncco3)sc21)OC(C)C [Compound I-018]	
0.08 (≈ 0.124 µM)	≥ 50	0.4 (≈ 0.622 µM)	0.4 (≈ 0.622 µM)	0.4 (≈ 0.622 µM)	0.4 (≈ 0.622 µM)	≥ 0.4	> 50									Cc1c(-n2nccn2)sc2c1c(=O)n(C(C)(C)C(=O)NC(C)C)c(=O)n2C[C@H](OC(C)C)c1cc(F)ccc1OCC1COC1 [Compound I-069]	
0.4 (≈ 0.734 µM)	50 (≈ 91.8 µM)	2 (≈ 3.67 µM)	2 (≈ 3.67 µM)	2 (≈ 3.67 µM)	0.4 (≈ 0.734 µM)	0.08 (≈ 0.147 µM)	> 50									COc1ccc(F)cc1[C@H](Cn1c(=O)n(C(C)(C)C(N)=O)c(=O)c2c(C)c(-n3nccn3)sc21)OC(C)C [Compound I-113]	

The remaining lines, values behind:

Structure (SMILES)	IC90 [1, 5] [µg/mL]	IC90 (Septoria tritici (St); [6]) [µg/mL]	IC90 [2, 7] [µg/mL]	IC90 (Diplodia maydis (Dm); [8]) [µg/mL]	IC90 (Botrtyis cinerea (Bc); [9]) [µg/mL]	IC90 [3, 10] [µg/mL]	IC90 (Rhizoctonia solani (Rs); [11]) [µg/mL]	IC90 [4, 12] [µg/mL]	IC90 [1, 13] [µg/mL]	IC90 (Septoria tritici (St); [14]) [µg/mL]	IC90 [2, 15] [µg/mL]	IC90 (Diplodia maydis (Dm); [16]) [µg/mL]	IC90 (Botrtyis cinerea (Bc); [17]) [µg/mL]	IC90 [3, 18] [µg/mL]	IC90 (Rhizoctonia solani (Rs); [19]) [µg/mL]	IC90 [4, 20] [µg/mL]	further results
COc1ccccc1[C@H](Cn1c(=O)n(C(C)(C)C(=O)N2CCCC2)c(=O)c2c(C)c(-n3cccn3)sc21)OC1CCOCC1 [Compound I-116]	0.4 (≈ 0.643 µM)	≥ 50	≥ 2	10 (≈ 16.1 µM)	10 (≈ 16.1 µM)	10 (≈ 16.1 µM)	2 (≈ 3.22 µM)	> 50									
COc1ccc(F)cc1[C@H](Cn1c(=O)n([C@H](C)C(N)=O)c(=O)c2c(C)c(-n3nccn3)sc21)OCCC#N [Compound I-200]									2 (≈ 3.69 µM)	> 50	> 50	> 50	2 (≈ 3.69 µM)	2 (≈ 3.69 µM)	2 (≈ 3.69 µM)	> 50	
C=CCN(C)C(=O)C(C)(C)n1c(=O)c2c(C)c(-n3nccn3)sc2n(C[C@H](OC2CCOCC2)c2cc(F)ccc2OC)c1=O [Compound I-080]	0.08 (≈ 0.125 µM)	> 50	0.08 (≈ 0.125 µM)	0.4 (≈ 0.624 µM)	0.4 (≈ 0.624 µM)	2 (≈ 3.12 µM)	0.08 (≈ 0.125 µM)	> 50									
COc1ccc(F)cc1[C@H](Cn1c(=O)n([C@@H](C)C(=O)NC2CCC2)c(=O)c2c(C)c(-n3cccn3)sc21)OCCC#N [Compound I-312]																	IC90 [1, 21]: 10 µg/mL (≈ 16.8 µM); IC90 (Septoria tritici (St); [22]): > 50 µg/mL; IC90 [2, 23]: > 50 µg/mL; IC90 (Diplodia maydis (Dm); [24]): > 50 µg/mL; IC90 (Botrtyis cinerea (Bc); [25]): > 50 µg/mL; IC90 [3, 26]: > 50 µg/mL; IC90 (Rhizoctonia solani (Rs); [27]): 2 µg/mL (≈ 3.36 µM); IC90 [4, 28]: > 50 µg/mL
COc1ccc(F)cc1[C@@H](Cn1c(=O)n(C(C)(C)C(=O)NC(C)C)c(=O)c2c(C)c(-n3nccn3)sc21)OC(C)=O [Compound I-322]																	IC90 [1, 21]: 10 µg/mL (≈ 17 µM); IC90 (Septoria tritici (St); [22]): > 50 µg/mL; IC90 [2, 23]: > 50 µg/mL; IC90 (Diplodia maydis (Dm); [24]): > 50 µg/mL; IC90 (Botrtyis cinerea (Bc); [25]): 10 µg/mL (≈ 17 µM); IC90 [3, 26]: ≥ 10 µg/mL; IC90 (Rhizoctonia solani (Rs); [27]): > 50 µg/mL; IC90 [4, 28]: > 50 µg/mL
COc1ccc(Cl)cc1[C@H](Cn1c(=O)n(C(C)(C)C(=O)NC(C)C)c(=O)c2c(C)c(-n3nccn3)sc21)OCC(C)(C)C#N [Compound I-272]									2 (≈ 3.11 µM)	> 50	2 (≈ 3.11 µM)	2 (≈ 3.11 µM)	2 (≈ 3.11 µM)	2 (≈ 3.11 µM)	2 (≈ 3.11 µM)	> 50	
CCOC(=O)c1sc2c(c1C)c(=O)n(C(C)(C)C(N)=O)c(=O)n2C[C@H](OCCC#N)c1cc(F)ccc1OC [Compound I-180]									0.4 (≈ 0.714 µM)	> 50	50 (≈ 89.2 µM)	> 50	2 (≈ 3.57 µM)	10 (≈ 17.8 µM)	10 (≈ 17.8 µM)	> 50	
